# Results from publication PMC3531393, “In Vitro Evaluation of ESE-15-ol, an Estradiol Analogue with Nanomolar Antimitotic and Carbonic Anhydrase Inhibitory Activity” (PLoS ONE, 2012).
# Molecular target: T1, carbonic anhydrase II (CAII) (Homo sapiens, UniProt P00918)
# T1 construct: gene CA2; wild-type
# Assay: […] exchange between CO2 and water by membrane-inlet mass spectrometry; Henderson tight-binding analysis
# Assay type: biochemical
compound,measurement,value
"CCc1cc2c(cc1OS(N)(=O)=O)CC[C@@H]1C2CC[C@]2(C)[C@@H](O)C=C[C@@H]12 (stereo partly shown) [ESE-15-ol, 2-ethyl-3-O-sulphamoyl-estra-1,3,5(10),15-tetraen-17-ol]",Ki,167 ± 19 nM
